A melting point compilation (Tetko et al.; mined from patent text by program, amines drawn as free bases though some values may be those of a salt)

melting point [°C] | SMILES
52 to 53 | Cc1oc(-c2ccc(F)cc2)cc1CC(=O)O
158 to 160 | COc1cccc(/C=C/C(=O)/C=C/C(=O)O)c1
137 | c1ccc2c(c1)CSc1nnnn1-2
238 to 240 | O=c1c(Cl)c(Cl)cnn1-c1cc(-c2ccnc(Nc3cccc(Cl)c3)n2)ccn1
145 to 146 | c1ccc(Cc2n[nH]c(NCCCCOc3cccc(CN4CCCCC4)c3)n2)cc1
156 to 159 | CS(=O)(=O)c1ccc(-c2nc(C(F)(F)F)nc(Cl)c2-c2ccccc2)cc1
> 300 | Cn1ncc2nc3c(c(O)c21)CCCC3
177 to 178 | CCOC(=O)NNC(=O)Nc1c(F)cc(F)cc1F
136 to 138 | CCCOCCOc1ccccc1COc1ccc2c(c1)C=C(C(=O)Nc1ccc(CN(C)C3CCOCC3)cc1)CCS2(=O)=O
124 to 126 | O=C1c2ccccc2C(=O)N1CCCCCCc1cncnc1
101 to 103 | Cc1cc(I)cc(CO)c1N
135 to 136 | COC(CN(C)c1nccc(Oc2ccc(NC(=O)c3cc(F)cc(N4CCCCC4)c3)c3ccccc23)n1)OC
103 to 104 | CCOC(=O)c1cc(-c2ccccc2)n(-c2cccc(C)c2)c1C
289 | FC(F)(F)c1cc(-c2ccc(Cl)c(Cl)c2)nc2c(-c3nc(Nc4ccccn4)no3)cnn12
342 | Cn1cc(C(=O)O)c(=O)c2cc(F)c(Cl)cc21
208 to 209 | CCNc1cccnc1N1CCN(C(=O)c2ccc(C(=O)O)cc2)CC1
79 to 81 | c1ccc2c(c1)CCc1c-2noc1N1CCCNCC1
128 to 129 | COc1ccc(C(O)CNCCc2ccc(OC)c(OC)c2C)cc1 (centres undefined)
117 to 118 | Cc1oc(-c2ccccc2)nc1COc1cccc(COc2ccccc2CC(=O)O)c1
162 | COC(=O)C1Cc2c(OC)cccc2N1S(=O)(=O)c1ccc(-c2ccc(F)cc2F)cc1 (centres undefined)
123 to 124 | COc1ccc(Cn2c(=O)c3ccccc3n(CCCCCl)c2=O)cc1
97 to 103 | COC(=O)C=Cc1ccc(OCC(C)NCC(O)c2cccc(Cl)c2)cc1 (centres undefined)
146 to 149 | CCOC(=O)C(C(=O)Nc1ccc(Br)cc1C)=S(C)C

melting point [°C] | SMILES
116 to 118 | CC(C)(CO)C(O)(Cn1cncn1)c1ccc(F)cc1F (single isomer, unassigned; (+))
121 to 124 | CC(O)c1nccc(=O)[nH]1 (centres undefined)
125 | O=C(O)CCCc1cc(-c2ccccc2)nc2ccccc12
132 to 134 | CCCN1NC(c2ccc(OC)cc2)C2=C1C(=Cc1ccc(OC)cc1)CSC2 (centres undefined)
159 to 161 | CCCCc1ncc(C(=O)OCC)c(N(C)Cc2ccc(-c3ccccc3-c3nnn[nH]3)cc2)n1
176 to 178 | O=S(=O)(c1ccccc1)c1c[nH]c2ccc(Br)cc12
158 to 162 | COc1cc2c(cc1CCCCO)oc1cc(-c3ccccc3Cl)c3c(c12)C(=O)NC3=O
106 | CCN(CC)C(=O)CCc1nc(-c2cccs2)nc2ccccc12
90 to 91 | CCCCCCCCCCCCCCCCCCC(COC(C)=O)(COC(C)=O)NC(C)=O
225 to 227 | NS(=O)(=O)c1cc(C2OCCO2)cs1
137 to 138 | CCCn1c(=O)c2[nH]c(CCCc3ccccc3)nc2n(CCC)c1=O
40 to 42 | C[C@H](C(=O)NC[C@H](COC(=O)C(C)(C)C)Cc1ccccc1)c1ccc(NS(C)(=O)=O)c(F)c1
139 to 140 | O=C(NCCSCc1cccc(Cl)c1)c1c([N+](=O)[O-])cccc1[N+](=O)[O-]
> 250 | C=CCO[C@@H]1C[C@H]2[C@H](C(=O)O)[C@H]2[C@]1(N)C(=O)O
107 to 109 | CCCCN(CC)CC(=O)N1c2ccccc2N(C)C(=O)c2cnc(-c3ccccc3)nc21
91 to 92 | O=C(O)CCc1ccc(OCCc2ccccc2)cc1
105 to 107 | CC(C)(C)C(F)(F)c1ccc(C[C@H](N)[C@H](O)c2cccc(Cl)c2)cc1 (racemic)
123 to 125 | CC1(C)CCC(C)(C)c2cc(-c3cc(C=CC(=O)O)ccc3O)c(OCc3ccc(F)cc3)cc21
106 to 109 | CC(CC(C)(C)c1ccccc1)N=C(O)C(Cl)=C(Cl)C(=O)O (centres undefined)
209 to 211 | O=C(Cc1ccc(OCc2ccccc2C(=O)O)cc1)NC1(C(=O)O)Cc2ccc(-c3ccc(Cl)cc3)cc2C1 (centres undefined)
35 to 36 | ClCCCOc1ccc(Cl)cc1
158 to 159 | O=C(NCCC12CC3CC(CC(C3)C1)C2)c1cccc(Cl)c1Cl
128 to 130 | Cc1cc(-c2noc(C(F)(F)F)n2)cc(C)c1OCCCc1ccc(=O)[nH]c1

melting point [°C] | SMILES
151 to 155 | CCN1C(=O)C(C)(C)C(=O)N(C)c2cc(CCCN(CCn3ccc4occc4c3=O)Cc3cccnc3C)ccc21
214 to 215 | O=C(O)COc1nc2cc(Cl)c3cccnc3c2o1
71 to 72 | Cc1ncc(C(=O)N2CCCC2)s1
183 | COC(=O)C1=C(CC(=O)N2CCN(C)CC2)NC(CS(=O)c2ccccc2C)=C(C(=O)OC)C1c1c(Cl)cccc1Cl (centres undefined)
150 | CC(C)CC(C(=O)Nc1cc(Cl)cc(Cl)c1)N1C(=O)C=CC1=O (centres undefined)
215 to 221 | COc1cc2c(Nc3ccc(Sc4nccn4C)c(Cl)c3)c(C#N)cnc2cc1/C=C/CCCN1CCN(C)CC1
132 to 134 | CCCNC(=O)C(C)(C)Oc1ccc(-c2ccc(N3CCCCC3)cc2)cc1
184 to 186 | CCN1c2ncccc2C(=O)Nc2c1nc(N(C)C)c(Br)c2C
249 to 251 | COCOc1ccc(-c2ccc(-c3ccc(C(=O)O)cc3)cc2-c2ccc3c(c2)C(C)(C)CCC3(C)C)cc1
91 to 92 | CN(C)c1ccccc1CSC1=NC(SCc2ccccc2)=NC1(C)C
152 to 153 | [N-]=[N+]=NCC1Cc2c[nH]c3cccc(c23)C(=O)N1 (centres undefined)
149 to 150 | Cc1nc(-n2ccc(CCc3ccccc3)cc2=O)sc1C(=O)NCc1ccccc1
175 | Cc1nc2c(Cl)c(NC(=O)c3cc(Cl)ccc3Cl)ccc2s1
63 to 64 | CCONC(O)(CC)C1C(=O)C=C(CC)OC1=O (centres undefined)
173 to 177 | COc1ccc(CN2C(=O)[C@@H](N3C(=O)c4ccccc4C3=O)[C@H]2/C=C/c2ccccc2)c(OC)c1 (relative stereo)
137 to 139 | COC(=O)Nc1ccc(Cl)c(F)c1I
127 to 131 | CS(=O)(=O)c1cccc(-n2c(=O)c(CCCc3ccncc3)cc3cccnc32)c1
183 to 184 | COC(=O)Cc1ccc(N[C@@H](CCC(N)=O)C(=O)O)cc1
146 | O=C1Nc2ccccc2OC1c1ccccc1 (centres undefined)
133 to 135 | Cn1c(N2CC3CC2CN3C(=O)c2ccccc2)nc(-c2ccncn2)cc1=O (centres undefined)
207 to 208 | CC(N1C(=O)C(=O)N(c2ccc(Br)cc2)C1=S)C(C)(C)C (centres undefined)

SMILES | melting point [°C]
Nn1c(=O)cc2n(C3CC3)c3cc(N4CCNCC4)c(F)cc3n2c1=O | 232 to 234
O=C1CN2CCOC2(c2ccccc2F)c2cc(Cl)ccc2N1CCO (centres undefined) | 141 to 146
